Source: patent US5441949A, “Carbapenem antibiotic compounds” (Zeneca Limited, priority 1992, dated 1995)
Counter-ions that a name gives are not always drawn.

Experiments:
E. coli DCO = test: microbe, parasite or virus in culture; details: Escherichia coli
Excerpt: The antibacterial activity is described in terms of the minimum inhibitory concentration (MIC) determined by the agar-dilution technique with an inoculum size of 10^4 CFU/spot.

[1] = system: Enterobacter cloacae P99-; test: antibacterial activity in vitro, agar-dilution MIC, Diagnostic Sensitivity Test, inoculum 10^4 CFU/spot; assay type: cell-based
P. morganii I + 001 = test: as above; assay type: cell-based; details: Morganella morganii
B. fragilis AMP S = test: as above; assay type: cell-based; details: Bacteroides fragilis
S. aureus Oxford = test: as above; assay type: cell-based; details: Staphylococcus aureus

## C[C@@H](O)[C@H]1C(=O)N2C(C(=O)O)=C(S[C@@H]3CN[C@H](C(=O)Nc4cc(C(=O)O)c5ncccc5c4)C3)[C@H](C)[C@H]12 [Example 1, (1R,5S,6S,8R,2'S,4'S) 2-(2-(8-Carboxyquinol-6-ylcarbamoyl)pyrrolidin-4-ylthio)-6-(1-hydroxyethyl)-1-methylcarbapenem-3-carboxylic Acid Disodium Salt]
E. coli DCO
  MIC: 0.03 µg/mL
[1]
  MIC: 0.03 µg/mL
P. morganii I + 001
  MIC: 0.03 µg/mL
B. fragilis AMP S
  MIC: 0.5 µg/mL
S. aureus Oxford
  MIC: 0.13 µg/mL
